Entries after “also recorded” stand apart in the source; their conditions may differ.
Legend:
[1] = system: Burkitt's lymphoma cells (Raji); experiment: Growth arrest and apoptosis in Raji cells; type: cell-based; details: synthetic coronatine analog 0.5 mM (FIG. 15)
Description: (§1) In the following examples, all referenced cell lines were purchased from ATCC. T47D cells were maintained in Dulbecco's Modified Eagle medium (DMEM) (purchased from Life Technologies, Inc.) supplemented with 10% fetal calf serum (purchased from Life Technologies, Inc.), insulin (5 μg/ml), and antibiotics. CRL-5985, CRL-2632 and Raji cells were maintained in RPMI-1640 medium supplemented with 10% fetal calf serum (purchased from Life Technologies, Inc.) and antibiotics. Western blot analysis was performed by using phospho-serine 807/811-Rb, Rb, cyclin D1, cyclin D3, cdk-2, cdk-4, bcl-2, phospho-p38, bax, bak, PARP (cell signaling technology), MCL-1 (purchased from Biosource International) and beta-tubulin antibodies (purchased from Becton-Dickenson). Proteins were separated using an 8-10% SDS-polyacrylamide gel electrophoresis (SDS-PAGE), transferred to Immobilon-P membranes and immunoblotted with antibodies using the ECL detection system.
(§2) CRL-2632 diffuse large B-cell lymphoma cells (and Burkitt's lymphoma cells (“Raji”)) were treated with 12-oxo-PDA and a synthetic coronatine analog (0.5 mM).

[2] = system: CRL-2632 human malignant diffuse large B-cell lymphoma cells; experiment: Cell growth, cell number and morphology of lymphoma cells; type: cell-based; details: for cell growth arrest and cell death: CRL-2632, summary statement, dose dependent
Description: as §1
(§3) Cell lines CRL-2632 (B-cell lymphoma cells), CRL-5985 (human lung adenocarcinoma cells) and T-47D (human breast ductal adenocarcinoma cells) were exposed to 12-OPDA over an eight-day period. Cell viability and cell growth were measured versus controls.
(§4) The effects on cell growth and number for T-47D human breast cancer cells and CRL-2632 human malignant diffuse large B-cell lymphoma cells following treatment with 12-oxo-PDA and jasmonic acid (“JA”) over a four-day period were measured.
as §2

MCL-1 protein = experiment: Immunoblot, MCL-1 expression in CRL-2632 cells; type: cell-based, human; details: for expression of MCL-1 protein: CRL-2632, synthetic coronatine analog 0.5 mM (FIG. 15)
Description: as §1
(§5) Cells were incubated in the presence of 12-oxo-PDA (20 μM) for between one and six hours. The cells were then washed and lysed to extract total proteins. Thereafter, 30 μg extracts were resolved on 8% SDS-PAGE gel and probed with anti-PARP, anti-MCL-1, anti-bcl-2, anti-bax and anti-bak antibodies. […] Similarly, FIG. 13 illustrates the effects of 12-oxo-PDA treatment on apoptosis related proteins (i.e., Bcl-2, MCL-1, Bax and Bak proteins).
as §2

plants = details: background statement; cited from earlier work
[3] = system: CRL-2632 diffuse large B-cell lymphoma cells; experiment: Apoptosis / PARP cleavage immunoblot in CRL-2632 cells; type: cell-based, human; details: for growth arrest and apoptosis: CRL-2632, synthetic coronatine analog 0.5 mM (FIG. 15)
Description: as §1
Regulated cell apoptosis is essential for the development and maintenance of the immune system. The highly regulated anti-apoptotic MCL-1 protein appears to enhance short-term survival and functions in genotoxic cell death. […] Thus, deletion of MCL-1 during early lymphocyte differentiation increases apoptosis and arrests the development of B and T-lymphocytes. In this regard, one hallmark of apoptosis is activation of the caspases (e.g., caspase-3, caspase-6, and caspase-7). Activation of caspases leads to the cleavage of a […] PARP protein into an 89-kDa fragment.
as §5, with “proteins). […]” for “proteins).”

MCL-1 = MCL-1 expression in Raji cells; type: cell-based; details: synthetic coronatine analog 0.5 mM (FIG. 15)
Description: as §1, §2

[4] = system: T-47D human breast ductal adenocarcinoma cells; experiment: Cell growth and cell number of breast cancer cells; type: cell-based; details: for cell growth arrest and cell death: summary statement, dose dependent
Description: as §1
T-47D human breast ductal adenocarcinoma cells were treated with 12-oxo-PDA and measured at three and eight-day intervals.
as §3, §4

[5] = system: CRL-5985 human lung adenocarcinoma cells; experiment: Cell growth, cell number and morphology of lung cancer cells; type: cell-based; details: for cell growth arrest and cell death: CRL-5985, summary statement, dose dependent
Description: as §1
CRL-5985 human lung adenocarcinoma cells were treated with 12-oxo-PDA and measured at three and eight-day intervals.
Lung cancer cells were treated with concentrations of 12-oxo-PDA ranging from 15 μM to 50 μM (versus an untreated control sample).
as §3

cancer cells = experiment: Observations on treated cancer cells (Oil Red O staining, removal from culture medium); type: cell-based
Source text: Rather, it appears that 12-oxo-PDA (and the related compounds) irreversibly interferes with the cellular mechanisms involved in cell growth, differentiation and the interaction between the cells with the extracellular matrix.

p38 MAPK = experiment: Western blot, p38 MAPK phosphorylation in T-47D cells; type: cell-based, human; details: 20 μM
Description: as §1
(§6) Hyperphosphorylation of Rb is a critical process and component for regulating the cell cycle. The phosphorylation of Rb enables cells to pass through particular cell cycle checkpoints and to enter the S phase of cell cycle. […] Similarly, expression of β-tubulin and phosphorylation of p38 MAPK were unaffected.

p27 mRNA = experiment: Real-time RT-PCR in T-47D cells, p27; type: cell-based, human; details: 25 uM, 48 hours, vs ethanol (FIG. 11)
Description: (§7) For real-time RT-PCR experiments T-47D cells were treated with ethanol (control) or with 25 uM 12-OPDA for 48 hours. Total RNA was isolated using TRIzol reagent (Invitrogen, Carlsbad, Calif.) followed by purification on RNeasy columns (Qiagen, Palo Alto, Calif.). For quantitative real-time RT-PCR analyses, total RNA from each sample was reverse transcribed with MuLV reverse transcriptase (Applied Biosystems, Foster City, Calif.) and random hexamer primers. The SYBR Green PCR Kit (Applied Biosystems) was used for quantitative real-time RT-PCR analysis. The primers for human ubuquitin, cyclin D1, p27 and c-fos were designed using Primer Express software (Applied Biosystems). 12-oxo-PDA was purchased from Larodon Fine Chemicals AB, Sweden. Jasmonic acid was purchased from Sigma-Aldrich Co. The indanoyl amino acid conjugate of coronatine (i.e., synthetic 6-azido-1-oxo-indanoyl isoleucine) was obtained from Dr. Wilhelm Boland (Max Planck Institute, Germany).
(§8) T-47D cells were exposed to 12-oxo-PDA in an effort to determine the effect of 12-oxo-PDA on gene expression. FIGS. 10, 11 and 12 show 12-OPDA mediated regulation of cyclin D1, p27 and c-fos mRNA levels, respectively, in T-47D cells compared to ethanol treatment alone. […] Thus, it appears that 12-oxo-PDA has a direct regulatory/inhibitory effect on the cyclin D1 and Rb protein. […]

cyclin D1 = experiment: Western blot, cyclin D1 expression in T-47D cells; type: cell-based, human; details: 20 μM, Western blot (FIG. 9)
Description: as §1, §6

C-FOS mRNA = experiment: Real-time RT-PCR in T-47D cells, c-fos; type: cell-based, human; details: 25 uM, 48 hours, vs ethanol (FIG. 12)
Description: as §7, §8

Bax = experiment: Immunoblot, Bax expression in CRL-2632 cells; type: cell-based, human; details: CRL-2632, 20 μM, one to six hours (FIG. 13)
Description: as §1, §5

β-tubulin = experiment: Western blot, β-tubulin expression in T-47D cells; type: cell-based, human; details: 20 μM
Description: as §1, §6

cyclin D1 mRNA = experiment: Real-time RT-PCR in T-47D cells, cyclin D1; type: cell-based, human; details: 25 uM, 48 hours, relative to untreated (ethanol) cells (FIG. 10)
Description: as §7, §8

tubulin = experiment: Tubulin polymerization in CRL-2632 cells (soluble/insoluble fractions, Western blot); type: cell-based, human; details: CRL-2632, 20 μM, one to six hours (FIG. 16)
Description: as §1
The increase in insoluble tubulin fractions indicates polymerization of tubulin in treated cells.

[6] = system: retinoblastoma tumor suppressor protein (Rb); experiment: Western blot, Rb phosphorylation in T-47D cells; type: cell-based, human; details: 20 μM
Description: as §1, §6

[7] = system: CRL-5985 (human lung adenocarcinoma cells); experiment: Cell viability, trypan blue exclusion assay; type: cell-based; details: CRL-5985, eight-day period, trypan blue (FIG. 5)
Description: as §1, §3

[8] = system: T-47D (human breast ductal adenocarcinoma cells); experiment: Cell viability, trypan blue exclusion assay; type: cell-based; details: eight-day period, trypan blue (FIG. 5)
Description: as §1, §3

Bak = experiment: Immunoblot, Bak expression in CRL-2632 cells; type: cell-based, human; details: CRL-2632, 20 μM, one to six hours (FIG. 13)
Description: as §1, §5

[9] = system: CRL-2632 (B-cell lymphoma cells); experiment: Cell viability, trypan blue exclusion assay; type: cell-based, human; details: CRL-2632, eight-day period, trypan blue (FIG. 5)
Description: as §1, §3

Bcl-2 = experiment: Immunoblot, Bcl-2 expression in CRL-2632 cells; type: cell-based, human; details: CRL-2632, 20 μM, one to six hours (FIG. 13)
Description: as §1, §5

[10] = CRL-2632, four-day period (FIG. 8)

CC[C@H](C)[C@H](NC(=O)c1cc(N=[N+]=[N-])cc2c1CCC2=O)C(=O)OC [synthetic coronatine]
growth arrest and apoptosis [1]: arrest growth and induce apoptosis
growth of CRL-2632 cells (growth ratio over ethanol control) ([2]; CRL-2632 (FIG. 14)): inhibit growth
expression of MCL-1 protein (MCL-1 protein): down regulate the expression of the MCL-1 protein
activation of plant stress signaling (volatile emission, tendril coiling) (plants): can induce volatile emissions and/or tendril coiling
growth arrest and apoptosis [3]: arrest growth and induce apoptosis
expression of MCL-1 (MCL-1): down-regulated expression of MCL-1

CC/C=C\C[C@H]1C(=O)CC[C@@H]1CC(=O)O [jasmonic acid, Jasmonic acid, reference compound]
growth inhibition relative to untreated control [2, 10]: some growth inhibition
total cell number over treatment period [2, 10]: net increase in total tumor cell number
cell growth arrest and cell death [2]: fails to be as effective
growth inhibition relative to untreated control ([4]; four-day period (FIG. 7)): some growth inhibition
total cell number over treatment period ([4]; four-day period (FIG. 7)): net increase in total tumor cell number
cell growth arrest and cell death [4]: fails to be as effective
cell growth arrest and cell death [5]: fails to be as effective

CC/C=C\C[C@@H]1C(=O)C=C[C@@H]1CCCCCCCC(=O)O [Formula 12-oxo-PDA, 12-oxo-phytodienoic acid]
lipid accumulation in the cytoplasm (cancer cells; Oil Red O staining): resulted in lipid accumulation in the cytoplasm
cell growth after removal of compound from culture medium (cancer cells; washout): did not restore cell growth
phosphorylation of p38 MAPK (p38 MAPK): unaffected
growth arrest and apoptosis [1]: arrest growth and induce apoptosis
decrease in total cell number ([2]; CRL-2632, eight-day period, vs untreated samples (FIG. 6)): ten-fold
total cell number over treatment period [2, 10]: decrease in total cell count
cell growth arrest and cell death [2]: arrests cell growth and induces cell death
morphological changes ([2]; CRL-2632, two and eight-day intervals (FIG. 4)): morphological changes
decrease in cell number ([4]; eight-day period, vs untreated samples (FIG. 6)): three-fold
total cell number over treatment period ([4]; four-day period (FIG. 7)): decrease in total cell count
cell growth arrest and cell death [4]: arrests cell growth and induces cell death
cell growth and accumulation ([4]; three and eight-day intervals, vs untreated control (FIG. 1)): significant decrease in cell growth and accumulation
p27 mRNA levels (p27 mRNA): no significant changes
cyclin D1 expression (cyclin D1): inhibition of cyclin D1 expression
decrease in cell number ([5]; CRL-5985, eight-day period, vs untreated samples (FIG. 6)): five-fold
cell growth arrest and cell death [5]: arrests cell growth and induces cell death
morphological changes ([5]; CRL-5985, three and eight-day intervals (FIG. 2)): ceased three-dimensional growth patterns and became more diffuse and single layered
cell growth ([5]; CRL-5985, three and eight-day intervals, vs control (FIG. 2)): significant decrease in cell growth
cell growth, concentration dependence ([5]; lung cancer cells, 15 μM to 50 μM, eight days (FIG. 3)): decrease in cell growth proportional to the concentration
expression of MCL-1 (MCL-1 protein; CRL-2632, 20 μM, one to six hours (FIG. 13)): inhibited the expression of MCL-1
expression of MCL-1 protein (MCL-1 protein): down-regulated expression of MCL-1
C-FOS mRNA levels (C-FOS mRNA): no significant changes
expression of Bax (Bax): no effect
expression of β-tubulin (β-tubulin): unaffected
decrease in cyclin D1 mRNA levels (cyclin D1 mRNA): greater than twenty-fold
tubulin polymerization (soluble vs insoluble tubulin fractions) (tubulin): induces tubulin polymerization
total Rb ([6]; Western blot): remained unchanged
Rb phosphorylation at the 807 and 811 serine residues ([6]; phospho-specific Rb antibody (FIG. 9)): inhibition of the hyperphosphorylation; also recorded: dramatically inhibited
cleavage of PARP ([3]; CRL-2632, 20 μM, one to six hours, immunoblot): time-dependent cleavage of PARP
growth arrest and apoptosis [3]: arrest growth and induce apoptosis
expression of MCL-1 (MCL-1): down-regulated expression of MCL-1
cell viability [7]: significant inhibitory effect
cell viability [8]: significant inhibitory effect
expression of Bak (Bak): no effect
cell viability [9]: particularly effective
expression of Bcl-2 (Bcl-2): no effect

CC[C@H]1C=C(C(=O)N[C@@]2(C(=O)O)C[C@@H]2CC)[C@H]2CCC(=O)[C@H]2C1 (stereo in doubt) [Coronatine]
activation of plant stress signaling (volatile emission, tendril coiling) (plants): can activate the stress signaling processes in plants

Source: patent publication US20040259906A1, “Methods for controlling the proliferation of cells” (priority 2003, published 2004)
